The source of these data is US10023587B2, “Oxabicycloheptanes and oxabicycloheptenes, their preparation and use” (LIXTE BIOTECHNOLOGY, INC., priority 2007, dated 2018).

“Also recorded” adds a separate entry of the source. Like-named read-outs stand apart in the source and are kept apart here.

The subject of data set [1] is GBM cell line U373. Briefly: Inhibition of growth of GBM cell line U373 by single agents (cell counts). The class given is cell-based, human. As to conditions: for Inhibition of growth of cell line U373 (in words): single agent; for IC50: U373, exposure for 7 days, estimated from graphic plots (FIG. 1), read-out: concentration that inhibited brain tumor cell proliferation by 50% (IC50). From the text:
From graphic plots of the glioblastoma multiforme GBM cell line U373 (available from the National Institute of Neurological Disorders and Stroke Molecular Pathogenesis Unit, Building 10, Room 5 D37, National Institutes of Health, 900 Rockville Pike, Bethesda, Md., 20892) as a function of exposure to different doses of drug for 7 days, the concentration of each compound that inhibited brain tumor cell proliferation by 50% (IC50) was estimated.
To identify novel therapeutic targets for the treatment of glioblastoma multiforme (GBM), cantharidin analogues were evaluated for their ability to inhibit growth of glioblastoma multiforme cells. Specifically, GBM cell line U373 was used in evaluations.
The total number of cells is counted in the triplicate cultures at each dose and in controls after 7 days and the average number of cells and the standard deviation is determined.
(§1) The amount of inhibition of GBM cell growth is expressed as the proportion of the number of cells in the experimental dishes compared to the number of cells in control dishes containing only the drug vehicle and culture medium. The average percent of control is plotted and bracketed by one standard deviation calculated from the triplicate measurements.
For all cell culture experiments, cells are allowed to grow in the presence or absence of different concentrations of drug or in the presence of the vehicle used to dissolve the drug, PBS for compound 100 and DMSO for compound 102. Cell counts are done in triplicate on day 3 and day 7 and inhibition of growth is expressed as a percentage of the number of cells present in the experimental well divided by the number of cells in a control well.

The subject of data set [2] is GBM cell line U373. Briefly: cells. Format: cell-based, human. As for the experimental part:
To observe the effects Compound 100 in combination with retinoic acids, Compound 100 was combined with all-trans retinoic acid. […] The total number of cells is counted in the triplicate cultures at each dose and in controls after 7 days and the average number of cells and the standard deviation is determined.
as §1
Synergism (potentiation) of the inhibitory activity of two drugs in combination is said to be present when the percent survival in the presence of two drugs is less than the product of the percent survivals of the two drugs used alone at the same doses in the combination.

The test system of data set [3] is breast cancer line, MCF-7. Briefly: Inhibition of growth of breast cancer cell line MCF-7. As to conditions: single agent, 7 days (FIG. 5). The class given is cell-based. From the text:
(§2) To determine whether there is tumor type specificity of the inhibitory properties of analogues of Compound 100, retinoic acid and Trichostatin A, we measured their inhibitory effects as single agents against the GBM line U373, a breast cancer line, MCF-7 (obtained from ATCC) and a kidney cancer cell line, UMRC (UMRC obtained by Dr. Zhuang, NINDS, NIH from the Intramural Research Support Program, SAIC, National Cancer Institute, Frederick Cancer Research and Development Center).

The subject of data set [4] is kidney cancer cell line, UMRC. Briefly: Inhibition of growth of kidney cancer cell line UMRC. The class given is cell-based. As to conditions: single agent, 7 days (FIG. 3).
Text: as §2

Data set [5] is described as follows: Solubility (water, lipid). The class given is physicochemical. As to conditions: own compounds.
The next data set in a line: Stability at acid pH. The class given is physicochemical.
For data set [6] the following is noted: known cantharidin homologs, stated as known; cited from earlier work.

For `COC(=O)C1C(C(=O)N2CCN(C)CC2)[C@@H]2CC[C@H]1O2` (stereo partly drawn), the melting point – broadly, the temperature, or range, at which the solid turns liquid – fell in the range of 105 to 107 °C.

As to `O=C(O)C1C(C(=O)N2CCNCC2)[C@@H]2CC[C@H]1O2` (stereo in doubt) [Compound 101, 3-(Piperazine-1-carbonyl)-7-oxa-bicyclo[2.2.1]heptane-2-carboxylic acid], the melting point is > 240 °C (dec.). Also, in the data set on GBM cell line U373 [1] (7 days), the “Inhibition of growth of cell line U373 (in words)” value is “less activity”.

In the case of `O=C(O)C1C(C(=O)N2CCN(Cc3ccccc3)CC2)[C@@H]2CC[C@H]1O2` (stereo in doubt) [Compound 103, 3-(4-Benzylpiperazine-1-carbonyl)-7-oxa-bicyclo[2.2.1]heptane-2-carboxylic acid], the melting point is > 190 °C (dec.). Further, the “Inhibition of growth of cell line U373 (in words)” value in the data set with GBM cell line U373 [1] (7 days) was “less activity”.

`COc1ccc(CCN2CCC(NC(=O)C3C(C(=O)O)[C@H]4CC[C@@H]3O4)CC2)cc1` (stereo in doubt) [Compound 104, 3-(1-[2-(4-Methoxy-phenyl)-ethyl]piperidin-4-ylcarbamoyl)-7-oxa-bicyclo[2.2.1]-heptane-2-carboxylic acid] showed a melting point of 140 to 142 °C. The “Inhibition of growth of cell line U373 (in words)” value in the data set on GBM cell line U373 [1] (7 days) was “less activity”.

With `CC1=C(/C=C/C(C)=C/C=C/C(C)=C/C(=O)O)C(C)(C)CCC1` [ATRA, all-trans retinoic acid], the activity at 25 µM in the data set on GBM cell line U373 [2] (Homo sapiens, U373 MG, 168 h, read-out: Percent of Control, Observed) was found to be 77%. The “Inhibition of growth of MCF-7 (in words)” value in data set [3] was “an inhibition in growth”; in data set [3] (listed as all-trans retinoic acid), “as sensitive as U373”. Besides, in data set [4], the “Sensitivity of UMRC compared with U373 (in words)” value was “less sensitive than the brain tumor line, U373”.

In the case of `CC1=C(/C=C/C(C)=C/C=C/C(C)=C\C(=O)O)C(C)(C)CCC1` [Cis-RA, 13-cis Retinoic Acid], the “Percent of Control, Observed” value in the data set on GBM cell line U373 [2] (Cis-RA 50 μM, U373 (Table 4)) is given as 93.3 +/− 2.2% of Control.

For `CCN1CCN(C(=O)C2C(C(=O)O)[C@H]3CC[C@@H]2O3)CC1` (stereo partly drawn) [Compound 105, 1-(3-Exocarboxy-7-oxabicyclo[2.2.1]heptane-2-exocarbonyl)-4-ethylpiperazine], in the data set with GBM cell line U373 [1] (10 μM, seven days (FIG. 8)), the “Inhibitory value against U373, comparison of the two compounds” value was “identical inhibitory values”. Further, the “Inhibition of growth of cell line U373 (in words)” value in the data set on GBM cell line U373 [1] (7 days) is “Increasing dosages demonstrate a greater inhibition of growth”; in the data set on GBM cell line U373 [1] (7 days, listed as compound 105) it was “highly active”; in the data set on GBM cell line U373 [1] (after three days (FIG. 6)) it was “Increasing dosages demonstrate a greater inhibition of growth”. Also, in data set [5], the “Water solubility (in words)” value is on record as “water soluble”. For the same molecule, the “Stability at acid pH (in words)” value in the data set “Stability at acid pH” is given as “stable at acid pH”.

Regarding `CN(C)CCNC(=O)C1C(C(=O)O)[C@H]2CC[C@@H]1O2` (stereo partly drawn) [Compound 106], the melting point is 48 to 50 °C. In the data set with GBM cell line U373 [1] (7 days), the “Inhibition of growth of cell line U373 (in words)” value is given as “less activity”.

As to `CC(/C=C/C(=O)NO)=C\[C@@H](C)C(=O)c1ccc(N(C)C)cc1` [TSA, Trichostatin A], in the data set on GBM cell line U373 [2] (TSA 0.033 μM (0.01 μg/ml), U373 (Table 4)), the “Percent of Control, Observed” value is on record as 71.6 +/− 0.4% of Control. The “Inhibition of growth of MCF-7 (in words)” value in data set [3] was “an inhibition in growth”; in data set [3] (listed as Trichostatin A), “as sensitive as U373”. Also, the “Sensitivity of UMRC compared with U373 (in words)” value in data set [4] is “less sensitive than the brain tumor line, U373”.

On to `C[C@@]12C(=O)OC(=O)[C@]1(C)[C@H]1CC[C@@H]2O1` [cantharidin], for which the “Water solubility (in words)” value in data set [6] is reported as “not”.

Consider `O=C1SC(=O)[C@H]2[C@@H]1[C@@H]1CC[C@H]2O1` [endothal thioanhydride, reference compound], for which the IC50 in the data set on GBM cell line U373 [1] was 2.5 µM. The “Inhibition of growth of cell line U373 (in words)” value in the data set with GBM cell line U373 [1] (7 days) is listed as “Increasing dosages demonstrate a greater inhibition of growth; also recorded: greatest inhibition of growth”. In addition, the “Inhibition of growth of MCF-7 (in words)” value in data set [3] is “as sensitive as U373”. Also, in data set [4], the “Sensitivity of UMRC compared with U373 (in words)” value was “less sensitive than the brain tumor line, U373”.

As to `O=C(O)[C@@H]1[C@H](C(=O)O)[C@H]2CC[C@@H]1O2` [endothal], the IC50 with GBM cell line U373 [1] was 15 µM. The “Inhibition of growth of cell line U373 (in words)” value with GBM cell line U373 [1] (7 days) is given as “Increasing dosages demonstrate a greater inhibition of growth; also recorded: modest inhibition of growth”. For the same molecule, in the data set on GBM cell line U373 [2] (END 10 uM, U373, 7 days (Table 3)), the “Percent of Control, Observed” value was determined as 65%. Moreover, the “Inhibition of growth of MCF-7 (in words)” value in data set [3] is on record as “as sensitive as U373; also recorded: an inhibition in growth”. The “Sensitivity of UMRC compared with U373 (in words)” value in data set [4] is listed as “less sensitive than the brain tumor line, U373”.

As to `O=C1OC(=O)[C@H]2[C@@H]1[C@H]1CC[C@H]2O1` [norcantharidin], the IC50 in the data set on GBM cell line U373 [1] was 12 µM. Also, the “Inhibition of growth of cell line U373 (in words)” value with GBM cell line U373 [1] (7 days) is “Increasing dosages demonstrate a greater inhibition of growth”. The “Inhibition of growth of MCF-7 (in words)” value in data set [3] was “as sensitive as U373”. In addition, in data set [4], the “Sensitivity of UMRC compared with U373 (in words)” value is reported as “less sensitive than the brain tumor line, U373”. For the same molecule, the “Water solubility (in words)” value in data set [6] is listed as “not”.
